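Protocol summary: plate cells (96-well), add compound at 5 concentrations, incubate 48 h, interpolate endpoints linearly. GI50 = concentration required for 50% inhibition of growth.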 Calls of active or inactive are those of the source. Rule as the data show it: active = GI50 up to about 1.1 µM and inactive = higher.
How the values were obtained:
Test in all cases: NCI-60 cell line screen, 48 h
EKVX = test system: EKVX
HOP-62 = test system: HOP-62
LOX IMVI = test system: LOX IMVI
NCI-H226 = test system: NCI-H226
OVCAR-3 = test system: OVCAR-3
OVCAR-8 = test system: OVCAR-8
RXF 393 = test system: RXF 393
SF-268 = test system: SF-268
SF-539 = test system: SF-539
SK-MEL-5 = test system: SK-MEL-5
SN12C = test system: SN12C
SR = test system: SR
TK-10 = test system: TK-10
UO-31 = test system: UO-31
COLO 205 = test system: COLO 205
SNB-75 = test system: SNB-75

SMILES	GI50 (EKVX)	GI50 (HOP-62)	GI50 (LOX IMVI)	GI50 (NCI-H226)	GI50 (OVCAR-3)	GI50 (OVCAR-8)	GI50 (RXF 393)	GI50 (SF-268)	GI50 (SF-539)	GI50 (SK-MEL-5)	GI50 (SN12C)	GI50 (SR)	GI50 (TK-10)	GI50 (UO-31)	GI50 (COLO 205)	GI50 (SNB-75)
CCOC(=O)C(=O)Nc1c(C)cccc1CC	> 100 µM (inactive)	> 100 µM (inactive)	> 100 µM (inactive)	> 100 µM (inactive)	> 100 µM (inactive)	> 100 µM (inactive)	> 100 µM (inactive)	> 100 µM (inactive)	> 100 µM (inactive)	> 100 µM (inactive)	> 100 µM (inactive)	> 100 µM (inactive)	> 100 µM (inactive)	> 100 µM (inactive)	–	–
COCOCC/C=C/C=O	> 100 µM (inactive)	–	> 100 µM (inactive)	–	> 100 µM (inactive)	> 100 µM (inactive)	> 100 µM (inactive)	> 100 µM (inactive)	> 100 µM (inactive)	> 100 µM (inactive)	> 100 µM (inactive)	> 100 µM (inactive)	> 100 µM (inactive)	> 100 µM (inactive)	> 100 µM (inactive)	> 100 µM (inactive)
CC1(C)CC(C)(C)CC(O)(C2(O)CC(C)(C)CC(C)(C)C2)C1	> 100 µM (inactive)	> 100 µM (inactive)	> 100 µM (inactive)	> 100 µM (inactive)	> 100 µM (inactive)	> 100 µM (inactive)	–	> 100 µM (inactive)	> 100 µM (inactive)	> 100 µM (inactive)	> 100 µM (inactive)	> 100 µM (inactive)	> 100 µM (inactive)	> 100 µM (inactive)	> 100 µM (inactive)	–
CCOC(=O)C1C(NC(N)=O)N(Cc2ccccc2)C(=O)N1Cc1ccccc1 (stereo unspecified)	> 100 µM (inactive)	> 100 µM (inactive)	> 100 µM (inactive)	–	> 100 µM (inactive)	> 100 µM (inactive)	–	> 100 µM (inactive)	> 100 µM (inactive)	> 100 µM (inactive)	–	> 100 µM (inactive)	> 100 µM (inactive)	> 100 µM (inactive)	> 100 µM (inactive)	> 100 µM (inactive)
N#CN1CCC=C(c2cc3ccccc3[nH]2)C1	270 µM (inactive)	> 448 µM (inactive)	230 µM (inactive)	> 448 µM (inactive)	92.5 µM (inactive)	300 µM (inactive)	256 µM (inactive)	210 µM (inactive)	> 448 µM (inactive)	148 µM (inactive)	356 µM (inactive)	159 µM (inactive)	> 448 µM (inactive)	–	388 µM (inactive)	–
O=C1/C(=C/c2cccc([N+](=O)[O-])c2)COc2ccccc21	25.6 µM (inactive)	11 µM (inactive)	1.8 µM (inactive)	3.86 µM (inactive)	2.79 µM (inactive)	2.84 µM (inactive)	4.65 µM (inactive)	8.99 µM (inactive)	4.42 µM (inactive)	2.32 µM (inactive)	–	–	23 µM (inactive)	15.2 µM (inactive)	> 42.2 µM (inactive)	13.1 µM (inactive)
CN(C)CC(C)(C)C(=O)/C=C/c1ccccc1	17.6 µM (inactive)	28.4 µM (inactive)	11.2 µM (inactive)	13.9 µM (inactive)	17.5 µM (inactive)	18 µM (inactive)	11.9 µM (inactive)	–	16.6 µM (inactive)	16.2 µM (inactive)	13.3 µM (inactive)	–	18.2 µM (inactive)	11 µM (inactive)	13.3 µM (inactive)	16.1 µM (inactive)
CN(C)CCn1cnc2sc3ccccc3c21	> 100 µM (inactive)	> 100 µM (inactive)	> 100 µM (inactive)	40.4 µM (inactive)	> 100 µM (inactive)	> 100 µM (inactive)	82.8 µM (inactive)	> 100 µM (inactive)	> 100 µM (inactive)	> 100 µM (inactive)	> 100 µM (inactive)	–	> 100 µM (inactive)	–	> 100 µM (inactive)	22.2 µM (inactive)
O=C(O)[C@@H]1CCCC[C@@H]1C(=O)N(C1CCCCC1)C1CCCCC1	> 100 µM (inactive)	> 100 µM (inactive)	> 100 µM (inactive)	> 100 µM (inactive)	> 100 µM (inactive)	> 100 µM (inactive)	–	> 100 µM (inactive)	> 100 µM (inactive)	> 100 µM (inactive)	> 100 µM (inactive)	> 100 µM (inactive)	> 100 µM (inactive)	> 100 µM (inactive)	> 100 µM (inactive)	> 100 µM (inactive)
Cc1cc(OCC(O)CO)ccc1-c1ccccc1 (stereo unspecified)	80.2 µM (inactive)	–	–	> 100 µM (inactive)	> 100 µM (inactive)	> 100 µM (inactive)	21.2 µM (inactive)	> 100 µM (inactive)	–	> 100 µM (inactive)	> 100 µM (inactive)	> 100 µM (inactive)	> 100 µM (inactive)	> 100 µM (inactive)	61 µM (inactive)	> 100 µM (inactive)
Cc1cc(C2CCCCC2)n(O)c(=O)c1 [CICLOPIROX OLAMINE]	4.04 µM (inactive)	–	11.9 µM (inactive)	–	–	3.22 µM (inactive)	16.5 µM (inactive)	4.25 µM (inactive)	5.52 µM (inactive)	10.4 µM (inactive)	12.5 µM (inactive)	2.95 µM (inactive)	37.1 µM (inactive)	6.32 µM (inactive)	39.4 µM (inactive)	5.46 µM (inactive)
C=CC1(C)/C(=N\O)C(C)(CC)C(=O)N1O (stereo unspecified)	> 100 µM (inactive)	> 100 µM (inactive)	> 100 µM (inactive)	–	> 100 µM (inactive)	> 100 µM (inactive)	> 100 µM (inactive)	> 100 µM (inactive)	> 100 µM (inactive)	> 100 µM (inactive)	> 100 µM (inactive)	> 100 µM (inactive)	> 100 µM (inactive)	> 100 µM (inactive)	> 100 µM (inactive)	> 100 µM (inactive)
COc1ccccc1NC(=O)C(CC(C(=O)Nc1ccccc1OC)/C(C)=N/Nc1ccc([N+](=O)[O-])cc1[N+](=O)[O-])/C(C)=N/Nc1ccc([N+](=O)[O-])cc1[N+](=O)[O-] (stereo unspecified)	> 88.7 µM (inactive)	> 95.5 µM (inactive)	40.2 µM (inactive)	> 100 µM (inactive)	77.4 µM (inactive)	> 71 µM (inactive)	–	> 84.9 µM (inactive)	> 90.2 µM (inactive)	31.6 µM (inactive)	> 100 µM (inactive)	0.916 µM (active)	14.6 µM (inactive)	27 µM (inactive)	69 µM (inactive)	52.1 µM (inactive)
Cc1cccc(C)c1NC(=O)CCCC(=O)CC(=O)/C=C/c1ccccc1	–	–	> 100 µM (inactive)	–	> 100 µM (inactive)	> 100 µM (inactive)	> 100 µM (inactive)	> 100 µM (inactive)	> 100 µM (inactive)	> 100 µM (inactive)	> 100 µM (inactive)	–	> 100 µM (inactive)	> 100 µM (inactive)	> 100 µM (inactive)	> 100 µM (inactive)
CNS(=O)(=O)NNS(=O)(=O)c1ccc(C)cc1	> 100 µM (inactive)	> 100 µM (inactive)	–	–	> 100 µM (inactive)	> 100 µM (inactive)	> 100 µM (inactive)	> 100 µM (inactive)	> 100 µM (inactive)	> 100 µM (inactive)	> 100 µM (inactive)	> 100 µM (inactive)	> 100 µM (inactive)	> 100 µM (inactive)	> 100 µM (inactive)	–
NC(CCc1nc(-c2ccc(Cl)cc2)cs1)C(=O)O (stereo unspecified)	> 100 µM (inactive)	> 100 µM (inactive)	> 100 µM (inactive)	> 100 µM (inactive)	> 100 µM (inactive)	> 100 µM (inactive)	> 100 µM (inactive)	> 100 µM (inactive)	–	> 100 µM (inactive)	> 100 µM (inactive)	> 100 µM (inactive)	> 100 µM (inactive)	> 100 µM (inactive)	> 100 µM (inactive)	> 100 µM (inactive)
O=c1c2ccccc2nc2n1-c1ccccc1SC2	25.5 µM (inactive)	> 100 µM (inactive)	> 100 µM (inactive)	–	64.9 µM (inactive)	38 µM (inactive)	58.3 µM (inactive)	60 µM (inactive)	> 100 µM (inactive)	30.1 µM (inactive)	51.2 µM (inactive)	–	> 100 µM (inactive)	48.2 µM (inactive)	92.9 µM (inactive)	17.7 µM (inactive)
CC(=O)CCn1[nH]c(=O)c(Cl)c(Cl)c1=O	> 100 µM (inactive)	> 100 µM (inactive)	> 100 µM (inactive)	> 100 µM (inactive)	> 100 µM (inactive)	> 100 µM (inactive)	> 100 µM (inactive)	> 100 µM (inactive)	> 100 µM (inactive)	> 100 µM (inactive)	> 100 µM (inactive)	> 100 µM (inactive)	> 100 µM (inactive)	> 100 µM (inactive)	–	> 100 µM (inactive)
Nc1nc(N)c2ncn(CCOC(c3ccccc3)P(=O)(O)O)c2n1 (stereo unspecified)	> 100 µM (inactive)	–	> 100 µM (inactive)	> 100 µM (inactive)	> 100 µM (inactive)	> 100 µM (inactive)	> 100 µM (inactive)	> 100 µM (inactive)	> 100 µM (inactive)	> 100 µM (inactive)	> 100 µM (inactive)	> 100 µM (inactive)	> 100 µM (inactive)	> 100 µM (inactive)	> 100 µM (inactive)	> 100 µM (inactive)

— ChEMBL document CHEMBL1201862, “PubChem BioAssay data set” (2004)
